Legend:
TIE2 = target: T1, TIE2 (Homo sapiens, UniProt Q02763); assay: KINOMEscan; assay type: binding; conditions: read-out: Percent Control
T1 construct: purchased Eurofins DiscoverX KINOMEscan (scanMAX 468)

CAMKK2 = target: T2, CAMKK2 (Homo sapiens, UniProt Q96RR4); assay: KINOMEscan; assay type: binding; conditions: read-out: Percent Control
T2 construct: purchased Eurofins DiscoverX KINOMEscan (scanMAX 468)

GRK2 = target: T3, GRK2 (Homo sapiens, UniProt P25098); assay: KINOMEscan; assay type: binding; conditions: read-out: Percent Control
T3 construct: purchased Eurofins DiscoverX KINOMEscan (scanMAX 468)

CDK4 = target: T4, CDK4 (Homo sapiens, UniProt P11802); assay: KINOMEscan; assay type: binding; conditions: read-out: Percent Control
T4 construct: purchased Eurofins DiscoverX KINOMEscan (scanMAX 468)

ZAP70 = target: T5, ZAP70 (Homo sapiens, UniProt P43403); assay: KINOMEscan; assay type: binding; conditions: read-out: Percent Control
T5 construct: purchased Eurofins (KINOMEscan, DiscoverX)

PRKR = target: T6, PRKR (Homo sapiens, UniProt P19525); assay: KINOMEscan; assay type: binding; conditions: read-out: Percent Control
T6 construct: purchased Eurofins DiscoverX KINOMEscan (scanMAX 468)

SNRK = target: T7, SNRK (Homo sapiens, UniProt Q9NRH2); assay: KINOMEscan; assay type: binding; conditions: read-out: Percent Control
T7 construct: purchased Eurofins DiscoverX KINOMEscan (scanMAX 468)

MKNK1 = target: T8, MKNK1 (Homo sapiens, UniProt Q9BUB5); assay: KINOMEscan; assay type: binding; conditions: read-out: Percent Control
T8 construct: purchased Eurofins DiscoverX KINOMEscan (scanMAX 468)

IRAK4 = target: T9, IRAK4 (Homo sapiens, UniProt Q9NWZ3); assay: KINOMEscan; assay type: binding; conditions: read-out: Percent Control
T9 construct: purchased Eurofins DiscoverX KINOMEscan (scanMAX 468)

AMPK-alpha2 = target: T10, AMPK-alpha2 (Homo sapiens, UniProt P54646); assay: KINOMEscan; assay type: binding; conditions: read-out: Percent Control
T10 construct: purchased Eurofins DiscoverX KINOMEscan (scanMAX 468)

MYLK4 = target: T11, MYLK4 (Homo sapiens, UniProt Q86YV6); assay: KINOMEscan; assay type: binding; conditions: read-out: Percent Control
T11 construct: purchased Eurofins DiscoverX KINOMEscan (scanMAX 468)

EPHB2 = target: T12, EPHB2 (Homo sapiens, UniProt P29323); assay: KINOMEscan; assay type: binding; conditions: read-out: Percent Control
T12 construct: purchased Eurofins DiscoverX KINOMEscan (scanMAX 468)

NEK3 = target: T13, NEK3 (Homo sapiens, UniProt P51956); assay: KINOMEscan; assay type: binding; conditions: read-out: Percent Control
T13 construct: purchased Eurofins DiscoverX KINOMEscan (scanMAX 468)

TXK = target: T14, TXK (Homo sapiens, UniProt P42681); assay: KINOMEscan; assay type: binding; conditions: read-out: Percent Control
T14 construct: purchased Eurofins DiscoverX KINOMEscan (scanMAX 468)

CSNK1A1 = target: T15, CSNK1A1 (Homo sapiens, UniProt P48729); assay: KINOMEscan; assay type: binding; conditions: read-out: Percent Control
T15 construct: purchased Eurofins DiscoverX KINOMEscan (scanMAX 468)

CAMK1D = target: T16, CAMK1D (Homo sapiens, UniProt Q8IU85); assay: KINOMEscan; assay type: binding; conditions: read-out: Percent Control
T16 construct: purchased Eurofins DiscoverX KINOMEscan (scanMAX 468)

MAST1 = target: T17, MAST1 (Homo sapiens, UniProt Q9Y2H9); assay: KINOMEscan; assay type: binding; conditions: read-out: Percent Control
T17 construct: purchased Eurofins DiscoverX KINOMEscan (scanMAX 468)

PRKCE = target: T18, PRKCE (Homo sapiens, UniProt Q02156); assay: KINOMEscan; assay type: binding; conditions: read-out: Percent Control
T18 construct: purchased Eurofins DiscoverX KINOMEscan (scanMAX 468)

KIT(D816H) = target: T19, KIT(D816H) (Homo sapiens, UniProt P10721, D816H); assay: KINOMEscan; assay type: binding; conditions: read-out: Percent Control
T19 construct: purchased Eurofins DiscoverX KINOMEscan (scanMAX 468)

CAMK1 = target: T20, CAMK1 (Homo sapiens, UniProt Q14012); assay: KINOMEscan; assay type: binding; conditions: read-out: Percent Control
T20 construct: purchased Eurofins DiscoverX KINOMEscan (scanMAX 468)

LKB1 = target: T21, LKB1 (Homo sapiens, UniProt Q15831); assay: KINOMEscan; assay type: binding; conditions: read-out: Percent Control
T21 construct: purchased Eurofins DiscoverX KINOMEscan (scanMAX 468)

TSSK3 = target: T22, TSSK3 (Homo sapiens, UniProt Q96PN8); assay: KINOMEscan; assay type: binding; conditions: read-out: Percent Control
T22 construct: purchased Eurofins DiscoverX KINOMEscan (scanMAX 468)

MDA-MB-231 = test system: MDA-MB-231; parameters: method as in ref 14 (a number printed in a supplementary file, which may have a reference list of its own: not looked up in the article's list); conditions: DB18[a], footnote not given; read-out: Cytotoxic studies IC50 MDA-MB-231; cited from earlier work
AMPK-alpha1 = target: T23, AMPK-alpha1 (Homo sapiens, UniProt Q13131); assay: KINOMEscan; assay type: binding; conditions: read-out: Percent Control
T23 construct: purchased Eurofins DiscoverX KINOMEscan (scanMAX 468)

CDC2L2 = target: T24, CDC2L2 (Homo sapiens, UniProt Q9UQ88); assay: KINOMEscan; assay type: binding; conditions: read-out: Percent Control
T24 construct: purchased Eurofins DiscoverX KINOMEscan (scanMAX 468)

ASK2 = target: T25, ASK2 (Homo sapiens, UniProt O95382); assay: KINOMEscan; assay type: binding; conditions: read-out: Percent Control
T25 construct: purchased Eurofins DiscoverX KINOMEscan (scanMAX 468)

MET(M1250T) = target: T26, MET(M1250T) (Homo sapiens, UniProt P08581, M1250T); assay: KINOMEscan; assay type: binding; conditions: read-out: Percent Control
T26 construct: purchased Eurofins DiscoverX KINOMEscan (scanMAX 468)

TAOK3 = target: T27, TAOK3 (Homo sapiens, UniProt Q9H2K8); assay: KINOMEscan; assay type: binding; conditions: read-out: Percent Control
T27 construct: purchased Eurofins DiscoverX KINOMEscan (scanMAX 468)

NEK1 = target: T28, NEK1 (Homo sapiens, UniProt Q96PY6); assay: KINOMEscan; assay type: binding; conditions: read-out: Percent Control
T28 construct: purchased Eurofins DiscoverX KINOMEscan (scanMAX 468)

FLT1 = target: T29, FLT1 (Homo sapiens, UniProt P17948); assay: KINOMEscan; assay type: binding; conditions: read-out: Percent Control
T29 construct: purchased Eurofins DiscoverX KINOMEscan (scanMAX 468)

MAK = target: T30, MAK (Homo sapiens, UniProt P20794); assay: KINOMEscan; assay type: binding; conditions: read-out: Percent Control
T30 construct: purchased Eurofins DiscoverX KINOMEscan (scanMAX 468)

TESK1 = target: T31, TESK1 (Homo sapiens, UniProt Q15569); assay: KINOMEscan; assay type: binding; conditions: read-out: Percent Control
T31 construct: purchased Eurofins DiscoverX KINOMEscan (scanMAX 468)

AKT2 = target: T32, AKT2 (Homo sapiens, UniProt P31751); assay: KINOMEscan; assay type: binding; conditions: read-out: Percent Control
T32 construct: purchased Eurofins DiscoverX KINOMEscan (scanMAX 468)

KIT(V559D,V654A) = target: T33, KIT(V559D,V654A) (Homo sapiens, UniProt P10721, V559D/V654A); assay: KINOMEscan; assay type: binding; conditions: read-out: Percent Control
T33 construct: purchased Eurofins DiscoverX KINOMEscan (scanMAX 468)

YSK1 = target: T34, YSK1 (Homo sapiens, UniProt O00506); assay: KINOMEscan; assay type: binding; conditions: read-out: Percent Control
T34 construct: purchased Eurofins (KINOMEscan, DiscoverX)

LCK = target: T35, LCK (Homo sapiens, UniProt P06239); assay: KINOMEscan; assay type: binding; conditions: read-out: Percent Control
T35 construct: purchased Eurofins DiscoverX KINOMEscan (scanMAX 468)

ERK3 = target: T36, ERK3 (Homo sapiens, UniProt Q16659); assay: KINOMEscan; assay type: binding; conditions: read-out: Percent Control
T36 construct: purchased Eurofins DiscoverX KINOMEscan (scanMAX 468)

HUNK = target: T37, HUNK (Homo sapiens, UniProt P57058); assay: KINOMEscan; assay type: binding; conditions: read-out: Percent Control
T37 construct: purchased Eurofins DiscoverX KINOMEscan (scanMAX 468)

RIOK2 = target: T38, RIOK2 (Homo sapiens, UniProt Q9BVS4); assay: KINOMEscan; assay type: binding; conditions: read-out: Percent Control
T38 construct: purchased Eurofins DiscoverX KINOMEscan (scanMAX 468)

ROCK1 = target: T39, ROCK1 (Homo sapiens, UniProt Q13464); assay: KINOMEscan; assay type: binding; conditions: read-out: Percent Control
T39 construct: purchased Eurofins DiscoverX KINOMEscan (scanMAX 468)

PIK3CA(E545K) = target: T40, PIK3CA(E545K) (Homo sapiens, UniProt P42336, E545K); assay: KINOMEscan; assay type: binding; conditions: read-out: Percent Control
T40 construct: purchased Eurofins DiscoverX KINOMEscan (scanMAX 468)

WNK2 = target: T41, WNK2 (Homo sapiens, UniProt Q9Y3S1); assay: KINOMEscan; assay type: binding; conditions: read-out: Percent Control
T41 construct: purchased Eurofins DiscoverX KINOMEscan (scanMAX 468)

DAPK3 = target: T42, DAPK3 (Homo sapiens, UniProt O43293); assay: KINOMEscan; assay type: binding; conditions: read-out: Percent Control
T42 construct: purchased Eurofins DiscoverX KINOMEscan (scanMAX 468)
T42 sequence (O43293 whole entry): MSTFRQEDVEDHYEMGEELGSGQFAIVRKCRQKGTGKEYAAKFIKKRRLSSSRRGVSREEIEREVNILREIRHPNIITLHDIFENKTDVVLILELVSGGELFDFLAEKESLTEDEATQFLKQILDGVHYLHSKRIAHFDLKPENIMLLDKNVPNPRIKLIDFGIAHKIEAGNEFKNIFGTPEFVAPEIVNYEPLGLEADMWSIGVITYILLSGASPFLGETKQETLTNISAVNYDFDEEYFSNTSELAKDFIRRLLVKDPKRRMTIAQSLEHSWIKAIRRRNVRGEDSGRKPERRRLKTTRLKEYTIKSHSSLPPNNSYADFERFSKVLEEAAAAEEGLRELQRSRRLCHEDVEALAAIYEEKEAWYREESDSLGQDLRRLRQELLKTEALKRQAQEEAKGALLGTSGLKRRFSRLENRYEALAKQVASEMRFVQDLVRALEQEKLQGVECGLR

T5 sequence (P43403 whole entry): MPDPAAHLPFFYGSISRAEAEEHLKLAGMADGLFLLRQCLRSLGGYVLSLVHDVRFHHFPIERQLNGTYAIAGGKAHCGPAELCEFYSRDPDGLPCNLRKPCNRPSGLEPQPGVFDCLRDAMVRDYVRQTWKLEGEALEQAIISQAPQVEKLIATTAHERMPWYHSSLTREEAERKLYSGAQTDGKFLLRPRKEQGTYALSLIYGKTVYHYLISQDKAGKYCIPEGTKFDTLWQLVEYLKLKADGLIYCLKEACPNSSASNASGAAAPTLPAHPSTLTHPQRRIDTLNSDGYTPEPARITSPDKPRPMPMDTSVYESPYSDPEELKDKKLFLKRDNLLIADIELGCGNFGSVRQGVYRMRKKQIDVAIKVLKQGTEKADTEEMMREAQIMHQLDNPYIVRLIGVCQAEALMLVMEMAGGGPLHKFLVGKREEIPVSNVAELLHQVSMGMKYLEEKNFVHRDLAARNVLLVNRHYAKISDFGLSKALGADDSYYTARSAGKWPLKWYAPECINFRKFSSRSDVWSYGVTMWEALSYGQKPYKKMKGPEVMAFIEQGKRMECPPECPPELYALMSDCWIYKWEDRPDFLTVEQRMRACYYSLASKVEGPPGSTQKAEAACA
T26 sequence (P08581 25-1390 M1250T): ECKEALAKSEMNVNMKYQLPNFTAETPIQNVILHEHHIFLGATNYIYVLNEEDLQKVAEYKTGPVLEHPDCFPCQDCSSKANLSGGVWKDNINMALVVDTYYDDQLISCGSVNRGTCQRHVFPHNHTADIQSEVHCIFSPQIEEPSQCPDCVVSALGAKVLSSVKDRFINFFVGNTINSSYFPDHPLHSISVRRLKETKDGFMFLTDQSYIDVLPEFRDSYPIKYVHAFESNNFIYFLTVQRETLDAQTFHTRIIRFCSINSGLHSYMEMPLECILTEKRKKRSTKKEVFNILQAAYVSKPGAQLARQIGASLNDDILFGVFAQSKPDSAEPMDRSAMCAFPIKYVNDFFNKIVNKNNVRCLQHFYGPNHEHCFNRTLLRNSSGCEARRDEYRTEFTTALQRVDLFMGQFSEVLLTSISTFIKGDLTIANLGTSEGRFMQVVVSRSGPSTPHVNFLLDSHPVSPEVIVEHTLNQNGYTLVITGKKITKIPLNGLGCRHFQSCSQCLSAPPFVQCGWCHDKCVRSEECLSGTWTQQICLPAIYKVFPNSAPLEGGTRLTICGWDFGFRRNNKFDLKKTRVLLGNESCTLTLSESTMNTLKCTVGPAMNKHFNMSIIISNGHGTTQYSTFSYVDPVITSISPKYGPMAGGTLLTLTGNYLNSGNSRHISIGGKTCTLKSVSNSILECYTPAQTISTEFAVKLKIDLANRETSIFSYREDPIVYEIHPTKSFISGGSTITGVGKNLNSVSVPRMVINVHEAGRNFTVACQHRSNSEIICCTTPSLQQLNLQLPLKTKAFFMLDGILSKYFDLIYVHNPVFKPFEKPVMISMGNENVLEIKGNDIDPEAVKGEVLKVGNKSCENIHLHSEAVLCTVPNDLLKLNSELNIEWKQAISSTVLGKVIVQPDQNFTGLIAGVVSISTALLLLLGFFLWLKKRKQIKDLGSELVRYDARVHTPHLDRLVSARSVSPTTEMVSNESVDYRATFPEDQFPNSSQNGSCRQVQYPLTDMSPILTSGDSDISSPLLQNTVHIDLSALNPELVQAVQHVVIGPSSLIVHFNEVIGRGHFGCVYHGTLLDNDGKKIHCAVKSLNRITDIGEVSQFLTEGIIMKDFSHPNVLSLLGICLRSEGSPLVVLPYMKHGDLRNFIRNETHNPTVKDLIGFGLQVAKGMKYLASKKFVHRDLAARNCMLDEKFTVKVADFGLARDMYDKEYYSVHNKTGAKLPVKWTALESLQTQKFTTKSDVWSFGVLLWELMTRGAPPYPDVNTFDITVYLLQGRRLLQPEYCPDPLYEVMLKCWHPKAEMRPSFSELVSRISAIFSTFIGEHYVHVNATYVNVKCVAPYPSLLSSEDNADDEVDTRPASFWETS
T12 sequence (P29323 19-1055): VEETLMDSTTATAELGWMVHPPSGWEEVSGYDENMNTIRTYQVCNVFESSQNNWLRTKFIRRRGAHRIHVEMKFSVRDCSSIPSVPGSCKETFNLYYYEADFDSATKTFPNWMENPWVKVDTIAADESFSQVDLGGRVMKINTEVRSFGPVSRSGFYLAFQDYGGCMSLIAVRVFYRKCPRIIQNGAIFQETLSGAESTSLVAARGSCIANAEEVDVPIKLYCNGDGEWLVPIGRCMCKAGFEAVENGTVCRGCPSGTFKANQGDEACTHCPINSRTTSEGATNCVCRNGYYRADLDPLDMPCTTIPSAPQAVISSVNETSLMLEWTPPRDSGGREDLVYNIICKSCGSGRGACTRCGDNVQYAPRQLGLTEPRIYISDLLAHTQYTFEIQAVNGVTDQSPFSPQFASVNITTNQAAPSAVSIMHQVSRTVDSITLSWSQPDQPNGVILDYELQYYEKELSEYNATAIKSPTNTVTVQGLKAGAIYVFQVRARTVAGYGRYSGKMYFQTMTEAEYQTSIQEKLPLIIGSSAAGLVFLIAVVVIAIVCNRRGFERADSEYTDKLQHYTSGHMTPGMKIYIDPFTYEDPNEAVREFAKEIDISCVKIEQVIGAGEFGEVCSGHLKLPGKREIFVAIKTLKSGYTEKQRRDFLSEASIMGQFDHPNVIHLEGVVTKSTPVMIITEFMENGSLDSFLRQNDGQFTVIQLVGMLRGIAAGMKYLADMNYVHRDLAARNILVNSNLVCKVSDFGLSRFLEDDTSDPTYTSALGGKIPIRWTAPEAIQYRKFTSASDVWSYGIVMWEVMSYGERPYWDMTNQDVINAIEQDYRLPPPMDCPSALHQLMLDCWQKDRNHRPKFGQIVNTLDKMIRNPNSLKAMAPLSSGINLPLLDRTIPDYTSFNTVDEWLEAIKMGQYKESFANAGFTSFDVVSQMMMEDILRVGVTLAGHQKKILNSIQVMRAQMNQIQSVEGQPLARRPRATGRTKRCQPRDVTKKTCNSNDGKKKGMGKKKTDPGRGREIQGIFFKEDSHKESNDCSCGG
T6 sequence (P19525 whole entry): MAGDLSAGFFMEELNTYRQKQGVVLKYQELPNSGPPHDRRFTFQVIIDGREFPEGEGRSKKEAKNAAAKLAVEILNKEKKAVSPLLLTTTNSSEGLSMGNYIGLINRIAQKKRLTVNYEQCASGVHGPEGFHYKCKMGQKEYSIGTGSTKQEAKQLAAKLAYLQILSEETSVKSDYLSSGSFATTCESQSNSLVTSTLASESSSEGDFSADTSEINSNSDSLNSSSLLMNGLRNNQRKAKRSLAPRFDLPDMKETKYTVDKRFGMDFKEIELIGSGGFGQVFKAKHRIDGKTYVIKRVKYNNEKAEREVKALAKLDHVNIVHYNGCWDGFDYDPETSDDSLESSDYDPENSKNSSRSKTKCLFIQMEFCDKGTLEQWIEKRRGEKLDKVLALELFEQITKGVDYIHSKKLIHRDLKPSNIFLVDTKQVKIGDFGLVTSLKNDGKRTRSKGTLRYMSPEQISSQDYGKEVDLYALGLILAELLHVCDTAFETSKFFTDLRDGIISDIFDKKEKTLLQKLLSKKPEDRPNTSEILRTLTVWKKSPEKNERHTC
T15 sequence (P48729 whole entry): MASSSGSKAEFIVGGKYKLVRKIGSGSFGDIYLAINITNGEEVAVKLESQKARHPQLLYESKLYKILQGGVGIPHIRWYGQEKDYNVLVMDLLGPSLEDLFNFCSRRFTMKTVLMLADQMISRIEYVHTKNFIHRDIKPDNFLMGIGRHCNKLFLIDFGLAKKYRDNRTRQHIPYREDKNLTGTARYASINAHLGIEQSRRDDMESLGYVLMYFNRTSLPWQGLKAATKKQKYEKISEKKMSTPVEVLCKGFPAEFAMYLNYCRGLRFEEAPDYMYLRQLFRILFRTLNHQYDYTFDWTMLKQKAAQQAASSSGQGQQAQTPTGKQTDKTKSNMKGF
T3 sequence (P25098 whole entry): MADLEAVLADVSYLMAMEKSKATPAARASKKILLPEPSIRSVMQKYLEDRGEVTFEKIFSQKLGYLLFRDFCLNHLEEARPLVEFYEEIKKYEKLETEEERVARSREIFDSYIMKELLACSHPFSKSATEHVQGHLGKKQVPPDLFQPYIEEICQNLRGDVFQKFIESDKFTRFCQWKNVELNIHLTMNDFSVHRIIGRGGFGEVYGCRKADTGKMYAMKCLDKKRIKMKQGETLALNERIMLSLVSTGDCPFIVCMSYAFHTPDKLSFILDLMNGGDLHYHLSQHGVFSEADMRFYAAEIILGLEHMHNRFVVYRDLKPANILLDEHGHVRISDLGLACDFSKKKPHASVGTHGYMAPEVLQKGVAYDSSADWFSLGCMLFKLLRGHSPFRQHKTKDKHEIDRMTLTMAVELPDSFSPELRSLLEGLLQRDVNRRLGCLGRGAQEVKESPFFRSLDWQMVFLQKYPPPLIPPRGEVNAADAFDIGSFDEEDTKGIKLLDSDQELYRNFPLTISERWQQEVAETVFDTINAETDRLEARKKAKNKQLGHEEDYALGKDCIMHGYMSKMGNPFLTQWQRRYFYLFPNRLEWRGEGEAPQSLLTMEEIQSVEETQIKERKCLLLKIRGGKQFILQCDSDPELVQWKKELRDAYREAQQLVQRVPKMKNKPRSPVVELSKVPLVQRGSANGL

## Cc1ccc(-n2cc(COc3cccc4cnc(Nc5cccc(Cl)c5)nc34)nn2)c([N+](=O)[O-])c1 [DB18]
TIE2
  remaining binding at 1 µM: 100%
CAMKK2
  remaining binding at 1 µM: 100%
GRK2
  remaining binding at 1 µM: 94%
CDK4
  remaining binding at 1 µM: 100%
ZAP70
  remaining binding at 1 µM: 100%
PRKR
  remaining binding at 1 µM: 97%
SNRK
  remaining binding at 1 µM: 100%
MKNK1
  remaining binding at 1 µM: 100%
IRAK4
  remaining binding at 1 µM: 100%
AMPK-alpha2
  remaining binding at 1 µM: 91%
MYLK4
  remaining binding at 1 µM: 94%
EPHB2
  remaining binding at 1 µM: 100%
NEK3
  remaining binding at 1 µM: 83%
TXK
  remaining binding at 1 µM: 96%
CSNK1A1
  remaining binding at 1 µM: 94%
CAMK1D
  remaining binding at 1 µM: 100%
MAST1
  remaining binding at 1 µM: 79%
PRKCE
  remaining binding at 1 µM: 100%
KIT(D816H)
  remaining binding at 1 µM: 100%
CAMK1
  remaining binding at 1 µM: 100%
LKB1
  remaining binding at 1 µM: 100%
TSSK3
  remaining binding at 1 µM: 96%
MDA-MB-231
  IC50: > 25 µM
AMPK-alpha1
  remaining binding at 1 µM: 94%
CDC2L2
  remaining binding at 1 µM: 100%
ASK2
  remaining binding at 1 µM: 99%
MET(M1250T)
  remaining binding at 1 µM: 88%
TAOK3
  remaining binding at 1 µM: 100%
NEK1
  remaining binding at 1 µM: 100%
FLT1
  remaining binding at 1 µM: 100%
MAK
  remaining binding at 1 µM: 100%
TESK1
  remaining binding at 1 µM: 95%
AKT2
  remaining binding at 1 µM: 100%
KIT(V559D,V654A)
  remaining binding at 1 µM: 100%
YSK1
  remaining binding at 1 µM: 98%
LCK
  remaining binding at 1 µM: 100%
ERK3
  remaining binding at 1 µM: 100%
HUNK
  remaining binding at 1 µM: 90%
RIOK2
  remaining binding at 1 µM: 100%
ROCK1
  remaining binding at 1 µM: 100%
PIK3CA(E545K)
  remaining binding at 1 µM: 66%
WNK2
  remaining binding at 1 µM: 67%
DAPK3
  remaining binding at 1 µM: 98%

Reference: article PMC9571063 (Molecules, 2022)
